Assay results published in patent US4366159A (priority 1981, dated 1982).
Where a name gives a salt, the structure may show the parent alone. Read-outs that look alike come from different tables or passages of the source.

Assays:
[1] = from a previous study, cited from earlier work
[2] = Experimental: (§1) The effect on anesthetic requirements and PaCO2 of combined doses of nalbuphine hydrochloride and morphine sulfate was evaluated in 18 Sprague-Dawley rats (200-350 gms). Anesthetic requirements for cyclopropane anesthetic of each rat was determined using a tail-clamp technique (Munson et al., The Effect of Acute Hypothyroidism and Hyperthyoidism on Cyclopropane Requirements (MAC) in Rats, Anesthesiology 1968; 29:1094-1098). After induction of anesthesia with cyclopropane, the femoral artery and vein were exposed and catheterized with PE50 tubing. Anesthetic requirement as measured by minimal alveolar concentration (MAC) was determined and thereafter nalbuphine hydrochloride was administered intravenously. Upon completion of control measurements, a bolus dose of 0.04 mg/kg of nalbuphine hydrochloride was followed with a constant infusion of 0.1 mg/kg/min. After 45 minutes of continuous infusion, MAC was redetermined and arterial blood sampling repeated. The rat then received either 2, 4 or 8 mg/kg subcutaneously of morphine sulfate and after 30 minutes MAC and arterial blood gas (ABG) values (PaO2, PaCO2, pH, HCO3) redetermined.
The effect of morphine sulfate alone on anesthetic requirement and respiration was evaluated in a separate group of five Sprague-Dawley rats. […]

[3] = mouse antiphenylquinone writhing test; details: for % mice blocked: 0:1 (morphine SO4 only)
[4] = anesthetic requirement (MAC) for cyclopropane, tail-clamp technique; assay type: in vivo, Sprague-Dawley rats
Experimental: as §1
The effect of morphine sulfate alone on anesthetic requirement and respiration was evaluated in a separate group of five Sprague-Dawley rats. After baseline measurements of anesthetic requirement (MAC) and ABG values, 2 mg/kg of morphine sulfate was given subcutaneously and after 30 minutes, repeat measurements of anesthetic requirements and blood gases were carried out.
Statistical evaluation was carried out using analysis of variance comparing the groups of animals at different infusion rates of nalbuphine hydrochloride, and for the animals receiving the combined morphine sulfatenalbuphine hydrochloride doses.

[5] = human, in vivo
Experimental: The nalbuphine was administered parenterally as each patient was coming out of the anesthesia. […] The respiratory effect of the nalbuphine was established by measurement of arterial PaCO2 using a blood gas analyzer well known in respiratory therapy. Normal PaCO2 is in the range of 35-42 mmHg. All arterial samples were obtained on an inspired oxygen concentration of 100%.

For `CN1CC[C@]23c4c5ccc(O)c4O[C@H]2[C@@H](O)C=C[C@H]3[C@H]1C5` [Morphine SO4], the “MAC Reduction % (Mean ± SEM)” value ([1]; morphine SO4 2 mg/kg sc) is listed as 21.80 ± 1.48%, the “MAC Reduction % (Mean ± SEM)” value ([1]; morphine SO4 4 mg/kg sc) is listed as 32.63 ± 0.98% and the “MAC Reduction % (Mean ± SEM)” value ([1]; morphine SO4 8 mg/kg sc) is listed as 54.87 ± 1.94%. For the same compound, the “mean PaCO2 compared with comparable MAC reduction dose of nalbuphine” value ([2]; morphine 2 mg/kg) was “significantly higher”, the “% mice blocked” value ([3]; s.c., 10 min, 0.373 mg/kg) was 17% and the “% mice blocked” value ([3]; s.c., 10 min, 0.745 mg/kg) was 37%. For the same compound, the “% mice blocked” value ([3]; s.c., 10 min, 1.49 mg/kg) was 83%, the “% mice blocked” value ([3]; s.c., 10 min, 2.98 mg/kg) was 100% and the “ED50 at 10 min., Morphine SO4” value ([3]; s.c., 10 min, morphine SO4 dose (alone or as component of combination), N = 30 mice/dose, 95% conf. limits printed on following lines) was 0.832 mg/kg. The “MAC Reduction % (Mean ± SEM)” value ([4]; morphine SO4 2 mg/kg sc, 30 min) was 22 ± 0.55% and the “MAC Reduction % (Mean ± SEM)” value ([4]; morphine SO4 2 mg/kg sc, 30 min, listed as morphine) was 22%.
With `Oc1ccc2c3c1O[C@H]1[C@@H](O)CC[C@@]4(O)[C@@H](C2)N(CC2CCC2)CC[C@]314` [Nalbuphine HCl, (-)-17-(cyclobutylmethyl)-4,5α-epoxymorphinan-3,6α, 14-triol] the duration of analgesia [5] was 8 to 12 h, the emergence from anesthesia [5] was “smooth, rapid” and the hypoxia and shunt [5] was “No patient was hypoxic, nor was there any significant shunt present”. The pH after nalbuphine [5] was 7.35±0.6, the “respiratory acidosis present before nalbuphine” value [5] was “completely reversed” and the “respiratory depression resulting from the narcotic” value [5] was “reversed in all cases”. The “PaCO2 (Mean ± SEM)” value ([2]; rat, in vivo) was 48.31 ± 1.07 mmHg, the “ED50 at 10 min., Nalbuphine HCl” value ([3]; mouse, in vivo, sc) was 2.17 mg/kg and the “MAC Reduction % (Mean ± SEM)” value ([4]; rat, in vivo) was 21.62 ± 0.69%.
